In the supplement of paper PMC10307832:

Columns and labels:
Assay in all cases: relative viability (nuclei count vs DMSO), 5 days (fraction); higher = more cells survive
Bexarotene + Palbociclib = compound: C=C(c1ccc(C(=O)O)cc1)c1cc2c(cc1C)C(C)(C)CCC2(C)C [Bexarotene] + CC(=O)c1c(C)c2cnc(Nc3ccc(N4CCNCC4)cn3)nc2n(C2CCCC2)c1=O [Palbociclib] (partner 0.5 µM)
In short: (§1)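 Cells from lung cancer lines were seeded into 1536-well plates and, one day later, dosed by pin tool. Treatments were either a single drug or a fixed dose of an anchor drug with five library-drug doses (not always all listed) in √10 steps. After 5 days, nuclei were stained in a one-step fixation (final 0.05% Triton X-100, 1% formaldehyde, 1 ug/ml Hoechst) and counted on 4× images, and relative viability is the treated-to-vehicle nuclei ratio, as the median of duplicate plates.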

Bexarotene + OSI-027 = compound: C=C(c1ccc(C(=O)O)cc1)c1cc2c(cc1C)C(C)(C)CCC2(C)C [Bexarotene] + COc1cccc2cc(-c3nc([C@H]4CC[C@H](C(=O)O)CC4)n4ncnc(N)c34)[nH]c12 [OSI-027] (partner 0.5 µM)
In short: as §1

Bexarotene + Foretinib = compound: C=C(c1ccc(C(=O)O)cc1)c1cc2c(cc1C)C(C)(C)CCC2(C)C [Bexarotene] + COc1cc2c(Oc3ccc(NC(=O)C4(C(=O)Nc5ccc(F)cc5)CC4)cc3F)ccnc2cc1OCCCN1CCOCC1 [Foretinib] (partner 0.25 µM)
In short: as §1

Bexarotene = compound: C=C(c1ccc(C(=O)O)cc1)c1cc2c(cc1C)C(C)(C)CCC2(C)C [Bexarotene]
In short: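 In 1536-well plates, lung cancer cell lines rested overnight at 37 °C before five library-drug doses (not always all listed), √10 apart, were pinned onto vehicle-anchored plates. Nuclei were counted with MetaXpress from 4× Hoechst images taken after 5 days without medium change. Viability compares treated-well with vehicle-well nuclei as a median over plates, and plates needed control CV below 25% plus at least one doubling to pass.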

Row | Cell Line | relative viability (Bexarotene + Palbociclib; first compound 0.08 µM) | relative viability (Bexarotene + Palbociclib; first compound 0.253 µM) | relative viability (Bexarotene + Palbociclib; first compound 0.8 µM) | relative viability (Bexarotene + Palbociclib; first compound 2.53 µM) | relative viability (Bexarotene + Palbociclib; first compound 8 µM) | relative viability (Bexarotene + OSI-027; first compound 0.08 µM) | relative viability (Bexarotene + OSI-027; first compound 0.253 µM) | relative viability (Bexarotene + OSI-027; first compound 0.8 µM) | relative viability (Bexarotene + OSI-027; first compound 2.53 µM) | relative viability (Bexarotene + OSI-027; first compound 8 µM) | relative viability (Bexarotene + Foretinib; first compound 0.08 µM) | relative viability (Bexarotene + Foretinib; first compound 0.253 µM) | relative viability (Bexarotene + Foretinib; first compound 0.8 µM) | relative viability (Bexarotene + Foretinib; first compound 2.53 µM) | relative viability (Bexarotene + Foretinib; first compound 8 µM) | relative viability (Bexarotene; 0.08 µM) | relative viability (Bexarotene; 0.253 µM) | relative viability (Bexarotene; 0.8 µM) | relative viability (Bexarotene; 2.53 µM) | relative viability (Bexarotene; 8 µM)
1 | 201T | 0.345 | 0.33 | 0.315 | 0.361 | 0.312 | 0.852 | 0.445 | 0.757 | 0.639 | 0.474 | 1.17 | 1.25 | 1.17 | 1.06 | 0.976 | 1.02 | 0.989 | 0.971 | 0.942 | 0.93
2 | A-427 | 0.48 | 0.47 | 0.467 | 0.444 | 0.487 | 0.448 | 0.462 | 0.455 | 0.449 | 0.415 | 1.14 | 0.932 | 0.941 | 1.05 | 0.868 | 1.06 | 0.963 | 0.954 | 0.895 | 0.893
3 | ABC-1 | 0.617 | 0.676 | 0.662 | – | 0.655 | 0.466 | 0.582 | 0.565 | 0.362 | 0.449 | 0.991 | 1.19 | 1.13 | 0.855 | 1.08 | 1 | 0.904 | 0.892 | 0.851 | 0.993
4 | BEN | 0.444 | 0.467 | 0.442 | 0.456 | 0.502 | 0.294 | 0.309 | 0.292 | 0.266 | 0.254 | 0.802 | 0.387 | 0.567 | 0.318 | 0.674 | 1.01 | 0.822 | 0.868 | 0.752 | 0.87
5 | CAL-12T | 0.442 | 0.465 | 0.342 | 0.417 | 0.441 | 0.523 | 0.416 | 0.49 | 0.439 | 0.441 | 1.31 | 1.1 | 1.19 | 1.03 | 0.977 | 0.989 | 0.992 | 0.981 | 0.844 | 0.917
6 | COR-L23 | 0.283 | 0.274 | 0.279 | 0.257 | 0.274 | 0.807 | 0.883 | 0.579 | 0.679 | 0.715 | 0.999 | 1.06 | 0.908 | 0.952 | 1.05 | 1.16 | 0.979 | 0.936 | 0.874 | 0.951
7 | COR-L 105 | 0.382 | 0.368 | 0.409 | 0.421 | 0.392 | 0.765 | 0.677 | 0.818 | 0.8 | 0.613 | 1.07 | 1.05 | 1.07 | 1.12 | 0.833 | 1.13 | 1.02 | 0.963 | 0.987 | 0.892
8 | Calu-6 | – | – | – | – | – | – | – | – | – | – | 0.973 | 0.901 | 0.752 | 0.886 | 1.02 | 1.04 | 1.03 | 0.955 | 1.02 | 1.06
9 | ChaGo-K-1 | 1.09 | 0.983 | 0.99 | 0.967 | 1.01 | 0.651 | 0.676 | 0.715 | 0.545 | 0.611 | 1.07 | 0.963 | 0.976 | 0.936 | 0.919 | 1.09 | 1.01 | 1 | 1.03 | 0.989
10 | EBC-1 | – | – | – | – | – | – | – | – | – | – | 0.111 | 0.124 | 0.101 | 0.129 | 0.112 | 0.901 | 1.03 | 0.971 | 1.02 | 1.08
11 | EKVX | 0.37 | 0.366 | 0.384 | 0.438 | 0.362 | 0.706 | 0.661 | 0.698 | 0.63 | 0.648 | 0.666 | 0.915 | 0.925 | 0.822 | 0.711 | 0.974 | 0.98 | 0.97 | 1.02 | 0.891
12 | EMC-BAC-2 | 0.538 | 0.529 | 0.508 | – | 0.502 | 0.416 | 0.42 | 0.385 | 0.367 | 0.419 | 0.912 | 1.09 | 0.998 | 0.964 | 0.993 | 1.15 | 1.02 | 1 | – | 1.02
13 | EPLC-272H | 0.313 | 0.358 | 0.312 | 0.314 | 0.354 | 0.292 | 0.277 | 0.26 | 0.283 | 0.272 | 0.666 | 0.555 | 0.75 | 0.588 | 0.737 | 1 | 0.93 | 0.802 | 0.881 | 0.939
14 | H3255 | 0.333 | 0.335 | 0.316 | 0.344 | 0.346 | 0.714 | 0.538 | 0.598 | 0.585 | 0.6 | 1.01 | 0.821 | 0.906 | 0.779 | 0.748 | 1.07 | 0.949 | 1.05 | 0.988 | 1.01
15 | HARA | 0.269 | 0.239 | 0.243 | 0.294 | 0.277 | 0.502 | 0.494 | 0.311 | 0.368 | 0.423 | 0.759 | 0.472 | 0.85 | 0.941 | 0.701 | 1.04 | 1.03 | 0.838 | 0.925 | 0.875
16 | HCC-15 | 0.779 | 0.925 | 0.753 | 0.794 | 0.726 | 0.792 | 0.806 | 0.631 | 0.621 | 0.632 | 1.09 | 1.07 | 1.05 | 1.05 | 0.996 | 1.1 | 1.11 | 1.02 | 0.978 | 1.05
17 | HCC-44 | 1 | 1.03 | 0.836 | 0.93 | 0.946 | 0.58 | 0.589 | 0.553 | 0.496 | 0.502 | – | – | – | – | – | 0.981 | 1.02 | 0.889 | 0.976 | 0.932
